The values that follow come from US11707539B2, “FAP-targeted radiopharmaceuticals and imaging agents, and uses related thereto” (Trustees of Tufts College, priority 2020, dated 2023).

One data set has as its target recombinant human FAP (Homo sapiens (Human), UniProt Q12884). The data set can be described thus: In vitro enzyme IC50 assay, FAP (Example 10). It is filed as biochemical. The settings on record: 10 min preincubation at 25° C., Z-Gly-Pro-AMC. How it is done: Biological Materials: For the in vitro IC50 determination assays, recombinant human DPPIV, DPP9, FAP, and PREP were purchased from R&D Systems, and DPP8 was from Biomol International. Buffer systems used were A (25 mM Tris, pH 8.0), B (50 mM Tris, pH 7.5), C (50 mM Tris, 140 mM NaCl, pH 7.5), D (25 mM Tris, 250 mM NaCl, pH 7.5), and E (20 mM Tris, 20 mM KCl, pH 7.4). […] Substrate Specificity Assay. Peptide libraries (0.21 mM) were incubated for 24 h with 1 nM FAP in buffer E at 37° C. The reaction was quenched by the addition of 1.2 N HCl. The samples were analyzed by reverse-phase HPLC-MS on a Thermo Finnigan LCQ Duo, quantifying the peaks in the resulting base peak chromatograms. Relative cleavage values were determined by comparing the postquench abundance of intact peptides to those in the initial library.
In Vitro Enzyme IC50 Assays. Enzymatic activity of DPPIV, DPP8, DPP9, FAP, and PREP was measured at 25° C. on a Molecular Devices M2e multidetection microtiter plate reader, monitoring the fluorescence at an excitation wavelength of 380 nm and an emission wavelength of 460 nm. The substrate was either H-Gly-Pro-AMC for the DPPIV, DPP8, and DPP9 assays or Z-Gly-Pro-AMC for the FAP and PREP assays. The reaction mixture contained […], enzyme, buffer A (DPPIV and DPP9), buffer B (DPP8), buffer C (FAP), or buffer D (PREP) and a suitable amount of inhibitor (ranging between 10-4 and 10-11 M) in a total volume of 210 μL. The final enzyme concentrations were 0.1, 0.8, 0.4, 1.2, and 0.6 nM for DPPIV, DPP8, DPP9, FAP, and PREP, respectively. […] Those prepared in pH 2.0 solution were preincubated at 25° C. for 4 h prior to dilution. Immediately prior to the commencement of the experiment, the 100 mM stocks were further diluted to 10−3 M in the appropriate assay buffer, from which 1:10 serial dilutions were prepared. All inhibitors were tested in triplicate.

In data set [1] the target is recombinant human fibroblast activation protein (FAP) (Homo sapiens (Human), UniProt Q12884). The data set can be described thus: In vitro IC50 assay, fibroblast activation protein (Example 15). In kind it is biochemical. How it is done: (§1) The purpose of this assay is to determine the IC50 of various inhibitors against recombinant human dipeptidyl peptidase IV (DPPIV), fibroblast activation protein (FAP) or prolyl oligopeptidase (PREP).
(§2) The assays are conducted in the following steps: • 1 Dissolve the compound in DMSO to a final concentration of 100 mM. From this, prepare a 1 mM stock at pH 7.5 in 50 mM Tris, 140 mM NaCl Buffer (FAP)/pH 7.5 in 25 mM Tris, 250 mM NaCl Buffer/pH 8.0 140 mM NaCl Buffer (PREP). • 2. Serial dilute (1:10) the 1 mM compound stocks prepared previously into the appropriate assay buffer (FAP: 50 mM Tris, 140 mM NaCl, pH 7.5/PREP: 25 mM Tris, 0.25 M NaCl, pH 7.5/DPPIV: 25 mM Tris, pH 8.0) to one row of a 96-well plate. • 3. […] Dilute the enzymes into their appropriate assay buffers. The final enzyme concentrations should be 0.1, 1.2, and 0.6 nM for DPPIV, FAP and PREP respectively. Add 180 μL to each well needed in columns 2-10. Column 1 (A,B,C) should be prepared with 200 ul of appropriate assay buffer as control. Column 1 (D,E,F,G,H) should be prepared with 20 ul of appropriate assay buffer and 180 ul enzyme as no inhibitor control. • 5. Add 20 μL of the compound of interest from the dilution plate prepared in step 2 to columns 2-10 of the assay plate where appropriate. Each sample should be tested in triplicate. Allow this to incubate for 10 minutes at room temperature, shaking the plate for the first two minutes. • 6. Add 10 μL of 20× substrate prepared in step 3 to each well and allow this to incubate for 15 minutes at room temperature, shaking the plate for the first two minutes. • 7. Read the fluorescence at λex: 380, λem: 460. (DPcore=[dAla|dSerGly]-[boroPro|Pro-nitrile], XXaa=alpha-amino acid)

Data set [2] has as its target recombinant human prolyl oligopeptidase (PREP) (Homo sapiens (Human), UniProt P48147). The data set can be described thus: In vitro IC50 assay, prolyl oligopeptidase (Example 15). It is filed as biochemical. The conditions noted are these: Z-Gly-Pro-AMC, room temperature; read-out: PREP IC50. How it is done: as §1, §2
Data set [3] addresses recombinant human dipeptidyl peptidase IV (DPPIV) (Homo sapiens (Human), UniProt P27487). The experiment in a line: In vitro IC50 assay, dipeptidyl peptidase IV (Example 15). It is filed as biochemical. The settings on record: Gly-Pro-AMC, room temperature. As for the experimental part:
as §1, §2

Data set [4] can be described thus: Solubility in water after lyophilization.
Data set [5] is described as follows: Stability in aqueous solution of pH about 3. The settings on record: during HPLC purification and subsequent lyophilization.
Where [6] appears, read: Z-Gly-Pro-AMC, room temperature, read-out: FAP IC50.

Read-outs that look alike come from different tables or passages of the source. Where a SMILES comes first, the peptide text is derived from it.

recombinant human prolyl oligopeptidase (PREP), sequence (P48147 whole entry): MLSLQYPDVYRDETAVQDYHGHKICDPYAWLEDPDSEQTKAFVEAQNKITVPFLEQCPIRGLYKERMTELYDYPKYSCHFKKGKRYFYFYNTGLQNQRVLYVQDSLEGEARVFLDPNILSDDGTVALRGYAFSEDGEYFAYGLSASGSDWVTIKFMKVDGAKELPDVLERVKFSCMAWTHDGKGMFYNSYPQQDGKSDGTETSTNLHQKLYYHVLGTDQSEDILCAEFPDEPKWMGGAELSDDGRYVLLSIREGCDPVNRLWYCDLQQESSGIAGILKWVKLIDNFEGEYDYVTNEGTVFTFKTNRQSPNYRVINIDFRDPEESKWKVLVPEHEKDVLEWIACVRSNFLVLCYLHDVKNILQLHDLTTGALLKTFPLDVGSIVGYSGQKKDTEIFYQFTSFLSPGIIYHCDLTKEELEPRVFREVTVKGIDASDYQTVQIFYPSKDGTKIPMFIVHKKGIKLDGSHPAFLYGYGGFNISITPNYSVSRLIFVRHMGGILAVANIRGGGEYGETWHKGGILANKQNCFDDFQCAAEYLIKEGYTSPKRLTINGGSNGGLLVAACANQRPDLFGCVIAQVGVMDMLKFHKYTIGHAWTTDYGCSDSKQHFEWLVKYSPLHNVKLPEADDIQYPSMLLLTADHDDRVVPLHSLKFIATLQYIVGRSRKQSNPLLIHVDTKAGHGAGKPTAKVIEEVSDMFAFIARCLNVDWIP
recombinant human fibroblast activation protein (FAP), sequence (Q12884 whole entry): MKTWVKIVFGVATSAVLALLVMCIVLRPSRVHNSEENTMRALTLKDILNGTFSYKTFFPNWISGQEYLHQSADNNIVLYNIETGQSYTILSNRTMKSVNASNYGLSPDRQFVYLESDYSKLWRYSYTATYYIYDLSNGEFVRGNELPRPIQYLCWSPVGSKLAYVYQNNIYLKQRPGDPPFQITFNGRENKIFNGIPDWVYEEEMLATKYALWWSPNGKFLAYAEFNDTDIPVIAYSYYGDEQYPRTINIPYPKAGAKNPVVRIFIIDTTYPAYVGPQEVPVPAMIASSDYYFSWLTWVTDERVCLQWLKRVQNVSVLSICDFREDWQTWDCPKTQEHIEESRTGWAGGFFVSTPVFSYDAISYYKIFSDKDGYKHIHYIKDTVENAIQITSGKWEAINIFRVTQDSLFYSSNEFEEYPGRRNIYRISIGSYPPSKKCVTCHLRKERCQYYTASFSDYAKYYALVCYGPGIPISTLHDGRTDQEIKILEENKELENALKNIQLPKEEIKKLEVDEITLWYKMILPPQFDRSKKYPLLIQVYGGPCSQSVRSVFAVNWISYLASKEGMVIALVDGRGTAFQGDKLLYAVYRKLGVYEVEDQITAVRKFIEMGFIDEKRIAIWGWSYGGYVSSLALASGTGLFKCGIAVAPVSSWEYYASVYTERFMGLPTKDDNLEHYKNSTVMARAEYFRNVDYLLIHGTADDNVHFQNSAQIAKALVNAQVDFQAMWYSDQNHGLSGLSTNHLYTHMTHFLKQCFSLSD
recombinant human FAP, sequence (Q12884 whole entry): as above
recombinant human dipeptidyl peptidase IV (DPPIV), sequence (P27487 whole entry): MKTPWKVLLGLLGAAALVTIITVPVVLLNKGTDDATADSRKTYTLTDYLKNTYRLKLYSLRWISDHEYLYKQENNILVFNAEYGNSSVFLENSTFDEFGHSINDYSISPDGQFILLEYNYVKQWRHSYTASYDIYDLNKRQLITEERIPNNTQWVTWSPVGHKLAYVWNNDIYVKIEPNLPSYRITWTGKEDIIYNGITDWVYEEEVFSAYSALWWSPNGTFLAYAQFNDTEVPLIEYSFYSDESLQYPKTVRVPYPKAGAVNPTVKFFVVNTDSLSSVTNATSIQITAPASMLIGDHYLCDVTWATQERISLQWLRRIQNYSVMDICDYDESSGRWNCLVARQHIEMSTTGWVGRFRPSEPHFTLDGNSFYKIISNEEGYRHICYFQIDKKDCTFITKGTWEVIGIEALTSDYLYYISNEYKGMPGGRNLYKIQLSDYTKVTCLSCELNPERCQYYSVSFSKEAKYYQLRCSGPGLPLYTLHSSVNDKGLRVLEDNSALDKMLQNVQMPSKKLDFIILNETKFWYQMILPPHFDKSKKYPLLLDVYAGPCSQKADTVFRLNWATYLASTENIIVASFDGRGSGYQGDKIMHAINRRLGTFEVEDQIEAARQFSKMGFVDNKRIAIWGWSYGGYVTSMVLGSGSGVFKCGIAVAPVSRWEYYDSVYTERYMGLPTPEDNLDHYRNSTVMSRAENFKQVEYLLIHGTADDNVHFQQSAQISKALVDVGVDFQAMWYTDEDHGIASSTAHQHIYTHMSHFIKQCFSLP

In the case of `C[C@@H](NC(=O)c1ccc(NNC(=O)CCCNC(=O)CN2CCN3CCN4CCN(CC2)CC(=O)[O][Gd]([O]C(=O)C3)[O]C(=O)C4)cc1)C(=O)N1CCC[C@H]1B(O)O` [Compound 6489Gd, DOTA[Gd]-GABA-HyBz-D-Ala-boroPro], the IC50 (usually the concentration needed to halve the response being measured) at recombinant human FAP was 1.1 nM.

For the compound `CC(C)[C@H](NC(=O)CN1CCN(CC(=O)O)CCN(CC(=O)O)CCN(CC(=O)O)CC1)C(=O)N[C@H](C)C(=O)N1CCC[C@H]1B(O)O` [Compound 6508, DOTA-Val-DAla-boroPro], the concentration for half-maximal inhibition (IC50) at recombinant human FAP worked out at 62 nM.

With `C[C@@H](NC(=O)[C@H](CO)NC(=O)CN1CCN2CCN(CC(=O)O)CCN(CC1)CC(=O)[O][Cu][O]C(=O)C2)C(=O)N1CCC[C@H]1B(O)O` [Compound 6509CU, DOTA[(Cu(II)]-Ser-D-Ala-boroPro], the IC50 (on recombinant human FAP; in data set [1] (setting [6])) was 128 nM throughout.

For `C[C@H](NC(=O)CN1CCN(CC(=O)O)CCN(CC(=O)O)CCN(CC(=O)O)CC1)C(=O)N[C@H](C)C(=O)N1CCC[C@H]1B(O)O` [Compound 6511, DOTA-Ala-D-Ala-boroPro], the IC50 on recombinant human FAP stood at 71.7 nM.

For the compound `C[C@@H](NC(=O)CNC(=O)CN1CCN(CC(=O)O)CCN(CC(=O)O)CCN(CC(=O)O)CC1)C(=O)N1CCC[C@H]1B(O)O` [Compound 6512, DOTA-Gly-D-Ala-boroPro], at recombinant human FAP, the IC50 was 73.1 nM.

Regarding `CC(C)[C@H](NC(=O)CNC(=O)CNC(=O)CN1CCN2CCN(CC(=O)O)CCN(CC1)CC(=O)[O][Cu][O]C(=O)C2)C(=O)N[C@H](C)C(=O)N1CCC[C@H]1B(O)O` [Compound 6522CU, DOTA[(Cu(II)]-Gly-Gly-Val-D-Ala-boroPro] (HELM PEPTIDE1{[O=C(O)CN1CCN2CCN(CC(=O)[*:2])CCN(CC1)CC(=O)[O][Cu][O]C(=O)C2].G.G.V.[dA].[OB(O)[C@@H]1CCCN1[*:1]]}$$$$V2.0), the values for the half-inhibitory concentration (IC50) (on recombinant human FAP; in data set [1] (setting [6])) were 8.7 nM and 3.5 nM, respectively.

On to `CC(C)[C@H](NC(=O)CNC(=O)CNC(=O)CN1CCN2CCN3CCN(CC1)CC(=O)[O][Ga]([O]C(=O)C2)[O]C(=O)C3)C(=O)N[C@H](C)C(=O)N1CCC[C@H]1B(O)O` [Compound 6522GA-02, DOTA(Ga)-Gly-Gly-Val-D-alaboroPro] (HELM PEPTIDE1{[O=C1CN2CCN3CCN(CC(=O)[*:2])CCN(CC2)CC(=O)[O][Ga]([O]1)[O]C(=O)C3].G.G.V.[dA].[OB(O)[C@@H]1CCCN1[*:1]]}$$$$V2.0), for which the IC50 in data set [1] (setting [6]) was 575 nM; in data set [2], 19000 nM; in data set [3] it was > 100000 nM.

Take `CC(C)[C@H](NC(=O)CNC(=O)CNC(=O)CN1CCN(CC(=O)O)CCN(CC(=O)O)CCN(CC(=O)O)CC1)C(=O)N[C@H](C)C(=O)N1CCC[C@H]1B(O)O` [Compound 6522L, DOTA-Gly-Gly-Val-alaboroPro(L-ala)] (HELM PEPTIDE1{[O=C(O)CN1CCN(CC(=O)O)CCN(CC(=O)[*:2])CCN(CC(=O)O)CC1].G.G.V.[dA].[OB(O)[C@@H]1CCCN1[*:1]]}$$$$V2.0): the IC50 in data set [1] is > 100000 nM; in data set [2], 7.6 nM; in data set [3], 3400 nM.

As for `CC(C)[C@H](NC(=O)CNC(=O)CNC(=O)CN1CCN2CCN3CCN(CC1)CC(=O)[O][Lu]([O]C(=O)C2)[O]C(=O)C3)C(=O)N[C@H](C)C(=O)N1CCC[C@H]1B(O)O` [Compound 6522LU, DOTA(Lu)-Gly-Gly-Val-D-ala-boroPro] (HELM PEPTIDE1{[O=C1CN2CCN3CCN(CC(=O)[*:2])CCN(CC2)CC(=O)[O][Lu]([O]1)[O]C(=O)C3].G.G.V.[dA].[OB(O)[C@@H]1CCCN1[*:1]]}$$$$V2.0), the IC50 is 26 nM in data set [1] (setting [6]), 19000 nM in data set [2] and > 100000 nM in data set [3].

Turning to `C[C@@H](NC(=O)c1ccc(CNC(=O)CN2CCN(CC(=O)O)CCN(CC(=O)O)CCN(CC(=O)O)CC2)cc1)C(=O)N1CCC[C@H]1B(O)O` [Compound 6555, DOTA-aminomethyl-Bz-D-Ala-boroPro], in data set [3], the IC50 is > 100000 nM. For the same compound, the solubility (in general, the dissolved amount per volume that the medium holds) in data set [4] is > 50 mg/mL. In addition, the “degradation in aqueous solution” value in data set [5] is listed as “did not observe any sign of degradation”.

Consider `C[C@@H](NC(=O)c1ccc(CNC(=O)CN2CCN3CCN4CCN(CC2)CC(=O)[O][Ga]([O]C(=O)C3)[O]C(=O)C4)cc1)C(=O)N1CCC[C@H]1B(O)O` [Compound 6555GA], for which, in data set [3], the IC50 was > 100000 nM. In data set [4], the solubility is > 50 mg/mL. Further, the “degradation in aqueous solution” value in data set [5] is listed as “did not observe any sign of degradation”.

As for `C[C@@H](NC(=O)c1ccc(CNC(=O)CN2CCN3CCN4CCN(CC2)CC(=O)[O][Lu]([O]C(=O)C3)[O]C(=O)C4)cc1)C(=O)N1CCC[C@H]1B(O)O` [Compound 6555LU], the IC50 in data set [3] was > 100000 nM. Also, the solubility in data set [4] is > 50 mg/mL. Besides, in data set [5], the “degradation in aqueous solution” value is recorded as “did not observe any sign of degradation”.

`C[C@@H](NC(=O)[C@H]1CC[C@H](CNC(=O)CN2CCN3CCN4CCN(CC2)CC(=O)[O][Ga]([O]C(=O)C3)[O]C(=O)C4)CC1)C(=O)N1CCC[C@H]1B(O)O` [Compound 6952GA, DOTA(Ga)-TXA-D-alaboroPro]: the solubility in data set [4] is > 50 mg/mL. In addition, the “degradation in aqueous solution” value in data set [5] is on record as “did not observe any sign of degradation”.

`C[C@@H](NC(=O)[C@H]1CC[C@H](CNC(=O)CN2CCN3CCN4CCN(CC2)CC(=O)[O][Lu]([O]C(=O)C3)[O]C(=O)C4)CC1)C(=O)N1CCC[C@H]1B(O)O` [Compound 6952LU, DOTA(Lu)-TXA-D-alaboroPro]: the IC50 in data set [3] was > 100000 nM. Further, in data set [4], the solubility was > 50 mg/mL. Besides, the “degradation in aqueous solution” value in data set [5] is “did not observe any sign of degradation”.

“(R)-DOTAGA(Ga)-Gly-Val-Dala-boroPro [Compound 6795DGA]”: the figures for the IC50 in data set [1] (setting [6]), in data set [2] and in data set [3] were 310 nM, 9400 nM and > 100000 nM, respectively.

For the compound “DOTA[Cu(II)]-EACA-HyBz-D-Ala-boroPro [Compound 6486]”, the IC50 (on recombinant human FAP; in data set [1] (setting [6])) was 2.8 nM in each case.
